Source: patent US12110293B2, “Substituted triazolo quinoxaline derivatives” (GRÜNENTHAL GMBH, priority 2018, dated 2024)

Biological target: T1, glucocorticoid receptor (Homo sapiens, UniProt P04150)
T1 construct: expressed in transfected cells
T1 sequence (P04150 524-758 limits assumed): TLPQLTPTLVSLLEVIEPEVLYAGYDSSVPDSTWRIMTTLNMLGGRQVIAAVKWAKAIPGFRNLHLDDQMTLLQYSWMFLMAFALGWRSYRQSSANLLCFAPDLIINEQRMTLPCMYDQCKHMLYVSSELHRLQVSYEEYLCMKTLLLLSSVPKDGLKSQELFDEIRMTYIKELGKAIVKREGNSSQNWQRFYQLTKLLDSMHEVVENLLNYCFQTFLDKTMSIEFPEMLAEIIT
Assay: Agonistic mode of action on the glucocorticoid receptor (CHO-Gal4/GR luciferase reporter cell line)
Assay type: cell-based
Conditions: range class observed in the agonistic assay or the antagonistic assay (CHO-Gal4/GR reporter cells); table does not say which mode applies per example
In short: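 CHO cells stably carrying GAL4 DBD–GR ligand-binding-domain fusion and GAL4-UAS firefly luciferase reporter, 5000 cells/well grown 24 h, then compounds added in Opti-MEM at 8 half-log concentrations from 10 μM to 0.003 μM (0.5% DMSO), quadruplicates. Agonist-induced luminescence read on FLIPR Tetra; EC50 calculated.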

IC50 or EC50 (agonist or antagonist mode not specified)	Structure (SMILES)
1000 to 15000 nM	Cc1nnc2n1-c1c(cc(C(F)F)c(-c3cc(F)cc4c3ccn4S(C)(=O)=O)c1F)NC2(C)C [Example 298, 7-(Difluoro-methyl)-9-fluoro-8-(6-fluoro-1-methylsulfonyl-1H-indol-4-yl)-1,4,4-trimethyl-5H-[1,2,4]triazolo[4,3-a]quinoxaline]
100 to 1000 nM	CCc1nnc2n1-c1c(cc(F)c(-c3cc(F)cc4c3ccn4CC3CC3)c1C)NC2(C)C [Example 35, 8-(1-(cyclopropylmethyl)-6-fluoro-1H-indol-4-yl)-1-ethyl-7-fluoro-4,4,9-trimethyl-4,5-dihydro-[1,2,4]triazolo[4,3-a]quinoxaline]
< 100 nM	Cc1nnc2n1-c1c(cc(F)c(-c3cc(F)cc4c3cnn4CC(F)F)c1F)NC2(C)C [Example 489, 8-[1-(2,2-Difluoro-ethyl)-6-fluoro-1H-indazol-4-yl]-7,9-difluoro-1,4,4-trimethyl-5H-[1,2,4]triazolo [4,3-a]quinoxaline]
< 100 nM	CCc1c(-c2cc(F)cc3c2ccn3S(C)(=O)=O)c(F)cc2c1-n1c(C)nnc1C(C)(C)N2 [Example 46, 9-Ethyl-7-fluoro-8-(6-fluoro-1-methylsulfonyl-1H-indol-4-yl)-1,4,4-trimethyl-5H-[1,2,4]triazolo[4,3-a]quinoxaline]
100 to 1000 nM	Cc1nnc2n1-c1c(cc(F)c(-c3cc(F)cc4c3ccn4CC(F)(F)F)c1F)NC2(C)C [Example 21, 7,9-difluoro-8-(6-fluoro-1-(2,2,2-trifluoroethyl)-1H-indol-4-yl)-1,4,4-trimethyl-4,5-dihydro-[1,2,4]triazolo[4,3-a]quinoxaline]
1000 to 15000 nM	CCc1nnc2n1-c1c(cc(F)c(-c3cccc4c3ccn4CCOC)c1C)NC2(C)C [Example 299, 1-Ethyl-7-fluoro-8-[1-(2-methoxy-ethyl)-1H-indol-4-yl]-4,4,9-trimethyl-5H-[1,2,4]triazolo[4,3-a]quinoxaline]
1000 to 15000 nM	Cc1nnc2n1-c1c(cc(OC(F)F)c(-c3cc(F)cc4c3ccn4S(C)(=O)=O)c1F)NC2(C)C [Example 268, 7-(Difluoro-methoxy)-9-fluoro-8-(6-fluoro-1-methylsulfonyl-1H-indol-4-yl)-1,4,4-trimethyl-5H-[1,2,4]triazolo[4,3-a]quinoxaline]
100 to 1000 nM	Cc1c(-c2ccc(F)c3[nH]ccc23)c(F)cc2c1-n1c(C)nnc1C(C)(C)N2 [Example 504, 7-Fluoro-8-(7-fluoro-1H-indol-4-yl)-1,4,4,9-tetramethyl-5H-[1,2,4]triazolo[4,3-a]quinoxaline]
< 100 nM	CCc1c[nH]c2c(-c3c(F)cc4c(c3F)-n3c(C)nnc3C(C)(C)N4)cc(F)cc12 [Example 43, 8-(3-ethyl-5-fluoro-1H-indol-7-yl)-7,9-difluoro-1,4,4-trimethyl-4,5-dihydro-[1,2,4]triazolo[4,3-a]quinoxaline]
100 to 1000 nM	Cc1c(-c2cccc3c2ccn3CC(F)F)c(Cl)cc2c1-n1c(C)nnc1C(C)(C)N2 [Example 327, 7-Chloro-8-[1-(2,2-difluoro-ethyl)-1H-indol-4-yl]-1,4,4,9-tetramethyl-5H-[1,2,4]triazolo[4,3-a]quinoxaline]
100 to 1000 nM	Cc1nnc2n1-c1c(cc(F)c(-c3cc(F)cc4c3cnn4S(C)(=O)=O)c1C(F)F)NC2(C)C [Example 346, 9-(Difluoro-methyl)-7-fluoro-8-(6-fluoro-1-methylsulfonyl-1H-indazol-4-yl)-1,4,4-trimethyl-5H-[1,2,4]triazolo[4,3-a]quinoxaline]
1000 to 15000 nM	CCc1nnc2n1-c1c(cc(F)c(-c3cccc4c3cnn4C)c1C)NC2(C)C [Example 240, 1-Ethyl-7-fluoro-4,4,9-trimethyl-8-(1-methyl-1H-indazol-4-yl)-5H-[1,2,4]triazolo[4,3-a]quinoxaline]

The remaining lines, values behind:

Structure (SMILES)	IC50 or EC50 (agonist or antagonist mode not specified)
Cc1cc(-c2c(Cl)cc3c(c2C)-n2c(C)nnc2C(C)(C)N3)c2ccn(S(C)(=O)=O)c2c1 [Example 491, 7-Chloro-1,4,4,9-tetramethyl-8-(6-methyl-1-methylsulfonyl-1H-indol-4-yl)-5H-[1,2,4]triazolo[4,3-a] quinoxaline]	< 100 nM
COc1c(-c2cccc3c(C)n[nH]c23)c(F)cc2c1-n1c(C)nnc1C(C)(C)N2 [Example 381, 7-Fluoro-9-methoxy-1,4,4-trimethyl-8-(3-methyl-1H-indazol-7-yl)-5H-[1,2,4]triazolo[4,3-a]quinoxaline]	1000 to 15000 nM
Cc1c(-c2cc(F)cc3c(C)c[nH]c23)c(OC(F)F)cc2c1-n1c(C)nnc1C(C)(C)N2 [Example 365, 7-(Difluoro-methoxy)-8-(5-fluoro-3-methyl-1H-indol-7-yl)-1,4,4,9-tetramethyl-5H-[1,2,4]triazolo[4,3-a]quinoxaline]	1000 to 15000 nM
COc1cc2c(c(F)c1-c1cccc3[nH]c(C(F)(F)F)cc13)-n1c(C)nnc1C(C)(C)N2 [Example 257, 9-Fluoro-7-methoxy-1,4,4-trimethyl-8-[2-(trifluoromethyl)-1H-indol-4-yl]-5H-[1,2,4]triazolo[4,3-a]quinoxaline]	100 to 1000 nM
Cc1c(-c2cccc3[nH]ccc23)c(F)cc2c1-n1c(C)nnc1C(C)(C)N2 [Example 399, 7-Fluoro-8-(1H-indol-4-yl)-1,4,4,9-tetramethyl-5H-[1,2,4]triazolo[4,3-a]quinoxaline]	< 100 nM
Cc1c(-c2cc(F)cc3c(C4CC4)c[nH]c23)c(Cl)cc2c1-n1c(C)nnc1C(C)(C)N2 [Example 485, 7-Chloro-8-(3-cyclopropyl-5-fluoro-1H-indol-7-yl)-1,4,4,9-tetramethyl-5H-[1,2,4]triazolo [4,3-a]quinoxaline]	< 100 nM
COCCn1ccc2c(-c3c(OC)cc4c(c3C(F)(F)F)-n3c(C)nnc3C(C)(C)N4)cccc21 [Example 334, 7-Methoxy-8-[1-(2-methoxy-ethyl)-1H-indol-4-yl]-1,4,4-trimethyl-9-(trifluoromethyl)-5H-[1,2,4]triazolo[4,3-a]quinoxaline]	1000 to 15000 nM
Cc1nnc2n1-c1c(cc(F)c(-c3c(F)ccc4[nH]ccc34)c1F)NC2(C)C [Example 214, 7,9-Difluoro-8-(5-fluoro-1H-indol-4-yl)-1,4,4-trimethyl-5H-[1,2,4]triazolo[4,3-a]quinoxaline]	< 100 nM
Cc1c(-c2cccc3c(C)c[nH]c23)c(OC(F)(F)F)cc2c1-n1c(C)nnc1C(C)(C)N2 [Example 405, 1,4,4,9-Tetramethyl-8-(3-methyl-1H-indol-7-yl)-7-(trifluoromethyloxy)-5H-[1,2,4]triazolo[4,3-a]quinoxaline]	100 to 1000 nM
Cc1c(-c2cccc3c2ccn3CC(F)F)c(OC(F)F)cc2c1-n1c(C)nnc1C(C)(C)N2 [Example 384, 8-[1-(2,2-Difluoro-ethyl)-1H-indol-4-yl]-7-(difluoro-methoxy)-1,4,4,9-tetramethyl-5H-[1,2,4]triazolo[4,3-a]quinoxaline]	1000 to 15000 nM
Cc1nnc2n1-c1c(cc(F)c(-c3cccc4c3ccn4S(C)(=O)=O)c1C(F)F)NC2(C)C [Example 315, 9-(Difluoro-methyl)-7-fluoro-1,4,4-trimethyl-8-(1-methylsulfonyl-1H-indol-4-yl)-5H-[1,2,4]triazolo[4,3-a]quinoxaline]	100 to 1000 nM
Cc1nnc2n1-c1c(cc(F)c(-c3cccc4nn(C)cc34)c1F)NC2(C)C [Example 222, 7,9-Difluoro-1,4,4-trimethyl-8-(2-methyl-2H-indazol-4-yl)-5H-[1,2,4]triazolo[4,3-a]quinoxaline]	1000 to 15000 nM
Cc1nnc2n1-c1c(cc(F)c(-c3cccc4c3ccn4CCO)c1C(F)(F)F)NC2(C)C [Example 456, 2-[4-[7-Fluoro-1,4,4-trimethyl-9-(trifluoromethyl)-5H-[1,2,4]triazolo[4,3-a]quinoxalin-8-yl]-1H-indol-1-yl]-ethanol]	100 to 1000 nM
Cc1nnc2n1-c1c(cc(F)c(-c3ccc(F)c4[nH]ccc34)c1F)NC2(C)C [Example 497, 7,9-Difluoro-8-(7-fluoro-1H-indol-4-yl)-1,4,4-trimethyl-5H-[1,2,4]triazolo[4,3-a]quinoxaline]	100 to 1000 nM
Cc1cc2c(c(F)c1-c1cccc3c1ccn3CC(F)F)-n1c(C)nnc1C(C)(C)N2 [Example 392, 8-[1-(2,2-Difluoro-ethyl)-1H-indol-4-yl]-9-fluoro-1,4,4,7-tetramethyl-5H-[1,2,4]triazolo[4,3-a]quinoxaline]	1000 to 15000 nM
Cc1nnc2n1-c1c(cc(F)c(-c3ccc(Cl)c4[nH]ccc34)c1F)NC2(C)C [Example 529, 8-(7-Chloro-1H-indol-4-yl)-7,9-difluoro-1,4,4-trimethyl-5H-[1,2,4]triazolo[4,3-a]quinoxaline]	100 to 1000 nM
Cc1ccc(-c2c(F)cc3c(c2C(F)F)-n2c(C)nnc2C(C)(C)N3)c2ccn(S(C)(=O)=O)c12 [Example 512, 9-(Difluoro-methyl)-7-fluoro-1,4,4-trimethyl-8-(7-methyl-1-methylsulfonyl-1H-indol-4-yl)-5H-[1,2,4]triazolo[4,3-a]quinoxaline]	1000 to 15000 nM
